In PubChem BioAssay AID1996:
Converted amounts (≈) assume the structure as drawn.

Details: buffer; pH 7.4; 200.0 µM

Compound | solubility kinetic
O=S(=O)(c1cnc[nH]1)N1CCN(c2ccc(F)cc2)CC1 | 5.8 µg/mL (≈ 18.7 µM)
O=C(CCCN1C(=O)c2cccc3cccc(c23)C1=O)NCc1ccco1 | 1.5 µg/mL (≈ 4.14 µM)
O=C(NC(=O)N1CCCCC1)c1ccc(Cl)cc1 | > 40 µg/mL
COc1ccccc1-n1c(/C=C/c2ccccn2)nc2ccccc2c1=O | 7.3 µg/mL (≈ 20.5 µM)
Nc1cc(Cl)ccc1C(=O)OCC(=O)NCC1CCCO1 (stereo unspecified) | > 46.9 µg/mL
CC(NS(=O)(=O)c1ccc2ccccc2c1)c1ccccn1.Cl (stereo unspecified) | > 52.3 µg/mL
CCc1cccc(NS(=O)(=O)c2csc(C(N)=O)c2)c1 | > 46.6 µg/mL
COCCN1CCn2c(nc3cc([N+](=O)[O-])ccc32)C1 | > 41.4 µg/mL
O=C(CN1C(=O)NC2(CCCCC2)C1=O)NCCc1ccccc1 | > 49.4 µg/mL
COc1cccc(CN2CCSCC2)c1OC | 24.2 µg/mL (≈ 95.5 µM)
CCCNC(=S)N1CCC(n2cnc3ccccc32)CC1 | > 45.4 µg/mL
COc1cccc2[nH]c3ccccc3c(=O)c12 | > 33.8 µg/mL
COc1ccccc1NC(=O)CCN1CCN(C)CC1 | 38.6 µg/mL (≈ 139 µM)
Cc1ccccc1C(=O)NC(CC(C)C)C(=O)NCC(C)(C)N1CCOCC1 (stereo unspecified) | > 58.4 µg/mL
CN1CCC(N(C)S(=O)(=O)c2ccc(Cl)cc2)CC1 | > 45.4 µg/mL
Cc1cc(C)c(C#N)c(Nc2ccccc2F)n1 | 5.1 µg/mL (≈ 21.1 µM)
CN(C(=O)Oc1ccc(F)cc1)c1ccccc1 | 24 µg/mL (≈ 97.9 µM)
CCCCc1nc2cc(C(=O)N3CCC(O)CC3)ccc2o1 | > 45.4 µg/mL
Cc1ccc(CNc2cc(C(=O)O)ccc2Cl)s1 | > 42.3 µg/mL
C=CCOn1c(=O)c(-c2ccc(Br)cc2)[n+]([O-])c2ccccc21 | 0.4 µg/mL (≈ 1.07 µM)
COc1ccc(CCNC(=O)Cc2ccc(Cl)cc2)cc1OC | > 50.1 µg/mL
COc1cccc(-n2c(O)c(C=NCCN3CCNCC3)c(=O)[nH]c2=S)c1 | > 58.4 µg/mL

Compound | solubility kinetic
CCC(=NCc1cccnc1)c1c(O)n(-c2ccccc2)c(=O)[nH]c1=O | 43.5 µg/mL (≈ 124 µM)
O=C(/C=C/c1ccc(S(=O)(=O)N2CCOCC2)cc1)Nc1cc(F)ccc1F | 5.5 µg/mL (≈ 13.5 µM)
COc1ccc(-n2ccc(=O)c(C(=O)O)n2)cc1 | > 36.9 µg/mL
COC(=O)c1cc(S(=O)(=O)Nc2ccc(C)cn2)c[nH]1 | 43.9 µg/mL (≈ 149 µM)
CCn1c(SCc2cccc(OC)c2)nc2ccccc2c1=O | 0.8 µg/mL (≈ 2.45 µM)
OC(CN1CCc2ccccc2C1)c1ccccc1 (stereo unspecified) | > 38 µg/mL
Cl.O=C(NCCCn1ccnc1)c1cc(Cl)cc(Cl)c1 | > 50.2 µg/mL
CC(NC(=O)c1ccncc1)c1ccc(Cl)cc1Cl (stereo unspecified) | > 44.3 µg/mL
COc1ccc(C(=O)CSc2nccn2C)cc1 | 35.1 µg/mL (≈ 134 µM)
Cc1ccc(S(=O)(=O)CC(=O)N2CCN(c3ccc([N+](=O)[O-])cc3)CC2)cc1 | 24.7 µg/mL (≈ 61.2 µM)
CCC(=NCCCn1ccnc1)c1c(O)n(-c2ccccc2)c(=O)[nH]c1=O | > 55.1 µg/mL
CN1CCC(N(C)C(=S)Nc2ccc(F)cc2)CC1 | > 42.2 µg/mL
COc1cc(/C=C/C(=O)OCC(=O)Nc2cc(S(=O)(=O)N3CCOCC3)ccc2Cl)cc(OC)c1OC | 5.3 µg/mL (≈ 9.55 µM)
O=c1cc[nH]c2ccc(OC(F)(F)F)cc12 | > 34.4 µg/mL
CCN(CC)C(=O)CN1C(=O)NC2(CCc3ccccc3C2)C1=O (stereo unspecified) | > 49.4 µg/mL
CC(C)CCN1C(=O)c2ccc(C(=O)OCC(=O)N(CC(C)C)C3CCS(=O)(=O)C3)cc2C1=O (stereo unspecified) | 46.8 µg/mL (≈ 95 µM)
CC(C)c1ccc(S(=O)(=O)N2CCN(C(=O)CN3C(=O)c4ccccc4C3=O)CC2)cc1 | 3.1 µg/mL (≈ 6.81 µM)
N#CCNC(=O)C1c2ccccc2Oc2ccccc21 | 4.1 µg/mL (≈ 15.5 µM)
COc1ccc(CCNC(=O)C(C)OC(=O)c2cccs2)cc1OC (stereo unspecified) | 49 µg/mL (≈ 135 µM)
O=C(O)CSc1ccc(S(=O)(=O)N2CCCC2)cn1 | > 45.4 µg/mL
COc1cccc(CC(=O)NC2CCSc3ccccc32)c1 (stereo unspecified) | 20.9 µg/mL (≈ 66.7 µM)
CCc1ccc(N2C(=O)CN(Cc3cccs3)C2=S)cc1 | < 0.3 µg/mL

Compound | solubility kinetic
Cn1c(N)c(C(=O)COC(=O)Cc2cccs2)c(=O)n(C)c1=O | > 50.6 µg/mL
CC1=C(C)C(C)=C(C#N)C(=C(C#N)C#N)N1 | > 31.5 µg/mL
Cc1cccc(NC(=S)NC2CC3C=CC2C3)c1 (stereo unspecified) | 6.2 µg/mL (≈ 24 µM)
CCCCOC(=O)C1=C(C)NC(=O)NC1c1ccc(OC)cc1 (stereo unspecified) | 14.6 µg/mL (≈ 45.9 µM)
COc1ccc(-n2nc(C(=O)N(C)C)nc2-c2ccccc2)cc1 | > 48.4 µg/mL
CC(=O)Nc1ccc2sc(C)nc2c1 | > 30.9 µg/mL
Cc1cc(C(=O)N2CCN(c3ncccn3)CC2)nn1C | > 43 µg/mL
COc1ccccc1/C=C/C(=O)NCC(=O)N/N=C/c1ccc(C)o1 | > 51.2 µg/mL
COc1cc(C(=O)Nc2nc(C)cc(C)n2)cc(OC)c1OC | 45.4 µg/mL (≈ 143 µM)
COc1ccc(S(=O)(=O)Nc2ccc(Cl)cn2)cc1 | 14.4 µg/mL (≈ 48.2 µM)
CC(NC(=O)C(=S)N1CCN(C)CC1)c1ccccc1 (stereo unspecified) | > 43.7 µg/mL
Cc1cc(C)c(S(=O)(=O)Nc2ccccn2)c(C)c1 | 4.7 µg/mL (≈ 17 µM)
Cc1ccc([N+](=O)[O-])cc1NC(=O)c1cccnc1 | > 38.6 µg/mL
CCOC(=O)c1c(C)noc1-c1ccc(Br)o1 | < 0.6 µg/mL
N#Cc1c(-c2ccccc2)cc(-c2ccc(O)cc2)nc1N | < 0.2 µg/mL
COc1cccc(C=Nc2ccc(N3CCOCC3)cc2)c1O | 33.7 µg/mL (≈ 108 µM)
CCOC(=O)C1(Cc2ccccc2)C(=O)N(CCCN(C)C)c2ccccc21.Cl (stereo unspecified) | 57 µg/mL
CC1(C)Cc2c(C#N)c(N3CCNCC3)nc(-c3ccco3)c2CS1 | 21.5 µg/mL (≈ 60.7 µM)
CN(C)c1ncc(S(=O)(=O)c2ccccc2)c(=O)[nH]1 | > 41.9 µg/mL
CCC(C)c1ccc(C(C)NC(=S)NCc2ccc(F)cc2)cc1 (stereo unspecified) | < 0.4 µg/mL
CC1CN(c2ccc([N+](=O)[O-])cc2Cl)CCN1S(C)(=O)=O (stereo unspecified) | > 50.1 µg/mL
CCOC(=O)c1ccc2c(c1)N(CC)C(=O)c1ccccc1S2 | 13.2 µg/mL (≈ 40.3 µM)

Compound | solubility kinetic
CCOC(=O)C(=O)C1=CN(Cc2ccccc2)C=C(C#N)C1 | > 44.4 µg/mL
COCc1nc2ccccc2n1Cc1c(F)cccc1Cl | > 45.7 µg/mL
CCN(CC)CCNC(=O)COc1ccc(OC)cc1 | 32 µg/mL (≈ 114 µM)
O=[N+]([O-])c1cccc(-c2nnc(SCc3cccnc3)o2)c1 | > 47.1 µg/mL
O=C(NCc1nc2ccccc2[nH]1)c1ccccc1F | > 40.4 µg/mL
CC(=O)c1cc(C#N)c(SCc2ccc([N+](=O)[O-])cc2)nc1C | < 0.2 µg/mL
O=C(Nc1ccccn1)Nc1ccccc1[N+](=O)[O-] | 2.9 µg/mL (≈ 11.2 µM)
O=C(NCc1ccc2c(c1)OCO2)c1ccccc1Cl | 40.8 µg/mL (≈ 141 µM)
N#Cc1ccccc1OCC(=O)OCC(=O)NC1CC1 | > 41.1 µg/mL
COc1ccc(OC)c2nc(-c3cccnc3)ccc12 | > 39.9 µg/mL
CC(=O)Nc1ccc(Cl)c(-c2nc3ncccc3o2)c1 | 41.5 µg/mL (≈ 144 µM)
c1ccc(-c2nc(NC3CCCC3)c3ccccc3n2)cc1 | 3.1 µg/mL (≈ 10.7 µM)
CC(C)(C)S(=O)(=O)/C(C#N)=C/Nc1ccccn1 | > 39.8 µg/mL
Cc1ccc(C(=O)N(CC(C)C)c2nc3ccccc3s2)o1 | 0.5 µg/mL (≈ 1.59 µM)
COC(=O)c1sccc1NC(=O)C1CC1 | 21.8 µg/mL (≈ 96.8 µM)
CC1(CCC(=O)N2CCCC(Nc3ccc(F)cc3)C2)CC1 (stereo unspecified) | > 45.7 µg/mL
CC(C)Nc1nc2nonc2nc1Nc1ccccc1 | > 40.5 µg/mL
Cc1cc(C)nc(Nc2cccc(Cl)c2)n1.Cl | 5.9 µg/mL
On1c(-c2ccc(Cl)cc2Cl)nc2ncccc21 | > 42 µg/mL
CCS(=O)(=O)N1CCC(C(=O)NCc2ccc(OC)cc2)CC1 | > 51.1 µg/mL
